Measured values as given in article PMC10141604, “Small-Molecule Inhibition of Androgen Receptor Dimerization as a Strategy against Prostate Cancer” (ACS Central Science, 2023).

Experiments:
[1] = system: subcutaneous xenografts of LNCaP cells; test: LNCaP mouse xenograft study, intratumor injection; format: in vivo; details: 2.5 mg/kg/week; for tumor growth inhibition (TGI): LNCaP xenograft in CB17 SCID mice; for tumor volume and weight: versus vehicle
Description: The animal protocols were in accordance with the guidelines of the Animal Welfare Council of China, and were performed by KCBIO company (Chengdu, China). All animal use and studies were performed in compliance with all relevant ethical regulations, and were approved by the Institutional Animal Care and Use Committee (IACUC) at Kangcheng Biotechnology Co., Ltd, Sichuan, China (IACUC-202010-m-001). In brief, male CB17 SCID mice (6-8 weeks old) were housed at a constant room temperature and fed a standard rodent diet and allowed free access to water. LNCaP cells (1 × 107) suspended in 0.1 ml PBS were injected subcutaneously into the right flank of eac h CB17 SCID mice. Once tumor size reached an average tumor volume of 110 mm 3, the mice were randomized into three groups with 6 mice per group, and then intratumor injection […]
The tumor volumes were estimated by measuring length (L) and width (W) and […]
calculating volume (V= 0.5 × L × W2). Finally, the mice were sacrificed and the tumors were harvested for hematoxylin and eosin (H&E) staining. […]
Addgene), 24 ng pGL4.36[luc2P MMTV Hygro] […]
For the antagonistic models, 10 nM /well progesterone for PC3 cells , 1 nM/well dexamethasone for HeLa, and 5 nM/well aldosterone for HEK293T cells were added to stimulate the cells. Meanwhile, each cell line was treated with a series concentration of compounds (0.4, 2, and 10 μM). For the agonistic models, the cells were directly treated with the compounds without any hormones. […]
Luciferase system (#E1910, Promega).
Cell Cycle and Apoptosis for LNCaP cells […]
48 h incubation by Cell Cycle Staining Kit (#CCS012, MULTI SCIENCES) using […]

[2] = system: human liver cells (Chang); test: MTT cell viability assay, Chang; format: cell-based; details: 72 h
Description: (§1) 3-(4,5-dimethythiazol-2-yl)-2,5-diphenyl-2-H-tetrazolium bromide (MTT) colorimetric assay was employed to investigate cell viability. Cells were seeded into 96-well plates with 2-5× 10^3 cells per well (5× 10^3 cells/well for LNCaP, 22RV1, NIH-3T3, GES-1, Chang, […]
(§2) NCI-H1299, U2OS, U87) for 1 day incubation at 37 °C. Then, the cells were treated with various concentrations of compounds (22.86 nM - 50 μM) and incubated for 72 h. Then, 10 μl MTT (5 mg/ml) was added into each well and incubated for 4 h. Afterwards, 100 μl of triplex 10% SDS-0.1% HCl-phosophate-buffered saline (PBS) solutions was added into each well and incubated for overnight. The absorbance at 570 nm was measured (Eon, Bioteck, Winooski, VT). […]

[3] = system: U2OS, MCF-7, HepG2, HL60, H1299, A549, SW480, U87, Hela cell lines; test: MTT cell viability assay, various human cancer cell lines; format: cell-based; details: concentration as high as 50 μM; Enz except U2OS, M17-B15 except A549
Description: as §1, §2

[4] = target: T1, PR (Homo sapiens, UniProt P06401); test: Luciferase reporter assay for PR (PC3 cells); format: cell-based; details: 10 μM, 10 nM progesterone
T1 construct: host or cells: PC3
T1 sequence (P06401 1-933): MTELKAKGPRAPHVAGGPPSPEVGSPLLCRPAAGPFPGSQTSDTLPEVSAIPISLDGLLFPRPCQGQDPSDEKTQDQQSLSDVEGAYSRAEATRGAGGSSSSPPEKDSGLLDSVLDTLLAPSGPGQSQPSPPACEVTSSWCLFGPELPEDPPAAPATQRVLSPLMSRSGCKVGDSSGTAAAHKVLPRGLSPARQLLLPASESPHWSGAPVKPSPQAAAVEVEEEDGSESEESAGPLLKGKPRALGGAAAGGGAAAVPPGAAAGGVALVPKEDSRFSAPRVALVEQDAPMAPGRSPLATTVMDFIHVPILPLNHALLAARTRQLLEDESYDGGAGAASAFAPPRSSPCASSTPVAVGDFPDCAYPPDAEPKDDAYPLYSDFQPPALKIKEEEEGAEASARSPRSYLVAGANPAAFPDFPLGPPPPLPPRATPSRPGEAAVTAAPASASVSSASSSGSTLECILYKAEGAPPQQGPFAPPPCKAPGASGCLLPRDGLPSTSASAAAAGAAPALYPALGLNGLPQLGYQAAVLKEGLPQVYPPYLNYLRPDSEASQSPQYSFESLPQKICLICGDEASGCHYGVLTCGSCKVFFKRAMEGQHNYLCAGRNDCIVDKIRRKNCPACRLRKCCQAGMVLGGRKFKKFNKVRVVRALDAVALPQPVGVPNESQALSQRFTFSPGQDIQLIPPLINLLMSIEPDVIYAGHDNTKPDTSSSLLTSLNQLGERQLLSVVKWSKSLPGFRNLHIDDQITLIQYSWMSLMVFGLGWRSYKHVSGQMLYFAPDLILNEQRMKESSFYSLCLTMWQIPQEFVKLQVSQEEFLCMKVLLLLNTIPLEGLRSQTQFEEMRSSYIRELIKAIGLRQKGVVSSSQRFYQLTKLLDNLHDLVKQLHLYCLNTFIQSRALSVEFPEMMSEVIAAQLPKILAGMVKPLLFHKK
Description: Luciferase Reporter Assays for PR, GR, and MR
PC3, HeLa, and HEK293T cells were cultured using 5% CSS RPMI-1640, 5% CSS RPMI-1640 and 10% FBS DMEM media in 96-well plates for 24 h, respectively. For PR induction, PC3 (1 × 10^4 cells/well) were transfected with 50 ng pcDNA3-PRB (#89130, Addgene), 24 ng pGL4.36[luc2P MMTV Hygro] (Promega) and 5 ng Renilla using HG-TransGeneTM transfection reagent (#TG-10012, Genomeditech) for 4 h. For GR induction, Hela (1 × 10^4 cells/well) were transfected with 71 ng pCMV -GR11 (#89105, Addgene), 24 ng pGL4.36[luc2P MMTV Hygro] (Promega) and 5 ng Renilla using lip3000 transfection reagent (#L3000075, Thermofisher) for 24 h. For MR induction, HEK293T (1 × 10^4 cells/well) were transfected with 71 ng pCMV-MR gifted by Liu et al. 28, 24 ng of pGL4.36[luc2P MMTV Hygro] (Promega) and 5 ng Renilla using lip3000 transfec tion reagent for 24 h. For the antagonistic models, 10 nM /well progesterone for PC3 cells , 1 nM/well dexamethasone for HeLa, and 5 nM/well aldosterone for HEK293T cells were added to stimulate the cells. Meanwhile, each cell line was treated with a series concentration of compounds (0.4, 2, and 10 μM). For the agonistic models, the cells were directly treated with the compounds without any hormones. Endogenous hormones progesterone, dexamethasone, and aldosterone were considered as agonists for PR, GR, and MR, respectively. The luciferase activities were assessed using the Dual-Glo Luciferase system (#E1910, Promega). […]

## CC(=O)Cc1nsc(NC(=O)c2cc(-c3cccc(C(F)(F)F)c3)oc2C)n1 [Compound M17-B15]
[1]
  tumor growth inhibition (TGI): 83.59%
  tumor volume and weight: significantly inhibited
[2]
  cytotoxicity against Chang: negligible cytotoxicity
[3]
  cell viability inhibition of various human cancer cell lines: mild to moderate inhibitory effects
[4]
  PR antagonistic activity: moderate

## CNC(=O)c1ccc(N2C(=S)N(c3ccc(C#N)c(C(F)(F)F)c3)C(=O)C2(C)C)cc1F [Enz, enzalutamide, reference compound]
[1]
  tumor growth inhibition (TGI): 51.35%
  tumor volume and weight: significantly inhibited
[2]
  cytotoxicity against Chang: negligible cytotoxicity
[3]
  cell viability inhibition of various human cancer cell lines: mild to moderate inhibitory effects
[4]
  PR antagonistic activity: moderate
